US20260151403A1, “NEK7 DEGRADERS AND METHODS OF USE THEREOF” (Captor Therapeutics S.A., priority 2022, published 2026)

Columns and labels:
NEK7-HiBiT protein = NEK7-HiBiT protein (Homo sapiens, UniProt Q8TDX7); assay: NEK7-HiBiT degradation assay (Nano-Glo HiBiT Lytic Assay) in HEK293 NEK7-HiBiT cells; assay type: cell-based; conditions: 24 h, conc. 0.1, 1 and 10 μM tested, concentration of the table values not stated, mean of 3 technical replicates
How it was run: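 HEK293 cells with CRISPR knock-in N-terminal HiBiT-tagged NEK7 exposed to compound for 24 h at 37 °C, 5% CO2. Residual NEK7-HiBiT was read as Nano-Glo HiBiT lytic luminescence and expressed as % of DMSO control across triplicates; compounds run at 0.1, 1 and 10 μM.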

NEK7 protein = NEK7 protein (Homo sapiens, UniProt Q8TDX7+Q96SW2); assay: NEK7 protein degradation determined by Western blot in human PBMC-derived macrophages; assay type: cell-based; conditions: 24 h; for remaining NEK7 protein amount at 10 µM: densitometric values normalized to loading control, read-out: Amount of NEK7 protein (% of DMSO control); for NEK7 protein degradation (Western blotting, in words): FIG. 1
NEK7 protein, sequence (Q8TDX7 whole entry): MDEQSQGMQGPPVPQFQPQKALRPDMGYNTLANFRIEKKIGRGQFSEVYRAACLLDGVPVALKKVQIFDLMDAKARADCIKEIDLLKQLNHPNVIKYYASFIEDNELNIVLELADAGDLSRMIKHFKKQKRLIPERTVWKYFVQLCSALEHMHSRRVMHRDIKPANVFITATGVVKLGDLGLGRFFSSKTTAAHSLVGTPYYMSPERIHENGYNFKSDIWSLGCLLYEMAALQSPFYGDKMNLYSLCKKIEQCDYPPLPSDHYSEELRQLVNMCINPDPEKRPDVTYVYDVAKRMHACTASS
NEK7 protein, sequence (Q96SW2 whole entry): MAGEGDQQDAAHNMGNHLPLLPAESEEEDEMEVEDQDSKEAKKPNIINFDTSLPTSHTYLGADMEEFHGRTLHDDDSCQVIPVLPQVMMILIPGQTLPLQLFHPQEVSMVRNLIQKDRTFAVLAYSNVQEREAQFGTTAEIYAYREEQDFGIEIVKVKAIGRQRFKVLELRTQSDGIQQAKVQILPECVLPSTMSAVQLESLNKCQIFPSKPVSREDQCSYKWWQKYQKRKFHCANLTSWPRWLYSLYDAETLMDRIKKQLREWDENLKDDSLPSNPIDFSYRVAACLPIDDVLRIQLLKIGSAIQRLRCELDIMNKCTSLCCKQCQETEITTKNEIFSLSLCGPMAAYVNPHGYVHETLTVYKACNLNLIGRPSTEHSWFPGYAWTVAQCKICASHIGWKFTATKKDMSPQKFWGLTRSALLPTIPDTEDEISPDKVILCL
NEK7 protein, sequence (Q16531 whole entry partner): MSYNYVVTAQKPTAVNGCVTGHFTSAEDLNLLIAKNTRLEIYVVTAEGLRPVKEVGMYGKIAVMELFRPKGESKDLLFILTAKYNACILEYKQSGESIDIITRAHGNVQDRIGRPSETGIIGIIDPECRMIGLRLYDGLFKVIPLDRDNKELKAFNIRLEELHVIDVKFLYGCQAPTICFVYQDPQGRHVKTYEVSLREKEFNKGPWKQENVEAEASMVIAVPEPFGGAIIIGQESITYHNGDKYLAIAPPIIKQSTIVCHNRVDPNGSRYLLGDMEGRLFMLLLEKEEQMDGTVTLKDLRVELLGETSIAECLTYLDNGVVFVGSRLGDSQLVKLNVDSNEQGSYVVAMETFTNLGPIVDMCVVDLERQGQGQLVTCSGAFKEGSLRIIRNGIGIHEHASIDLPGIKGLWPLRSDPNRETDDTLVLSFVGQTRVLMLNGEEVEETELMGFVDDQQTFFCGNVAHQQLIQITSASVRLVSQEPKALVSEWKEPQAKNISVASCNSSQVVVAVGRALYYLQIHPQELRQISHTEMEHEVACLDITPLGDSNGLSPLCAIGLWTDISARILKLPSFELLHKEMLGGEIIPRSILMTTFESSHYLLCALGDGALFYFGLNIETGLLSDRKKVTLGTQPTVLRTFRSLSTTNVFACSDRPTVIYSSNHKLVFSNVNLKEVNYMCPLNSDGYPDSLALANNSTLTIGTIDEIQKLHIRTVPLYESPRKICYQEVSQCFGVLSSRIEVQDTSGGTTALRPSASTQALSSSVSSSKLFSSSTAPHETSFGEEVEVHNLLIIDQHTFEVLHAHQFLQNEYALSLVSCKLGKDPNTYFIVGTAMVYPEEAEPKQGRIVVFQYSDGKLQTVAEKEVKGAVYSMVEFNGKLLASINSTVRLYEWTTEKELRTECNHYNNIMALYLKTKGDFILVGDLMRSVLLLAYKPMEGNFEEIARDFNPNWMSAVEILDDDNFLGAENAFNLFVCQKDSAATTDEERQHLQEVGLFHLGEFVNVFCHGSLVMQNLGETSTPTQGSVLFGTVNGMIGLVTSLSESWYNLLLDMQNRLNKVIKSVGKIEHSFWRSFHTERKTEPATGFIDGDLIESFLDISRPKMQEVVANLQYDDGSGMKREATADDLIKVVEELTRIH
Protocol: Macrophages were differentiated from human PBMCs isolated from buffy coats from healthy donors.
Buffy coats were diluted 1:1 (v/v) with DPBS (Sigma-Aldrich) in falcon tubes. After reconstitution, suspension was carefully layered on Histopaque-1077 solution (Sigma-Aldrich) and centrifuged (760×g, RT, 20 min; Brakes Off). PBMCs were collected and washed with DPBS (3× at 350×g, RT, 8 min and 1× at 200×g, RT, 10 min; Brakes On). Subsequently, cells were resuspended in appropriate volume of RPMI 1640 medium (Gibco) supplemented with 10% of heat-inactivated FBS (Gibco) and 1% of Penicillin-Streptomycin Solution 100x (Biowest). Cell viability was measured using trypan blue solution (Sigma-Aldrich).
10×10^6 of PBMCs per well were seeded on 6-well plates in complete medium supplemented with 10 ng/ml of M-CSF growth factor (R&D Systems). Differentiation was conducted for a week with medium replacement every 2-3 days. Differentiation of PBMCs into mature macrophages was confirmed by microscopic evaluation and FACS surface staining for the following markers: CD11b, CD14, CD16 (BD Pharmingen). Differentiated macrophages were subjected on NLRP3 inflammasome activation assay.
Human PBMC-derived macrophages were pre-treated for 24 h with exemplary compounds at the specific concentrations. Dilutions of tested compound were prepared in DMSO. Afterwards cells were primed with 1 μg/ml of LPS (Invivogen) for 3 h and NLRP3 inflammasomes were activated with 5 μM of nigericin solution (Invivogen) for 1 h. Supernatants were centrifuged and stored for ELISA assays and cell lysates were prepared for Western blotting analysis.
Cell lysates from Human PBMC-derived macrophages were prepared by direct lysis in 40 μl RIPA lysis buffer (50 mM Tris·HCl pH 7.4, 150 mM NaCl, 1% NP-40, 0.25% sodium deoxycholate, 0.1% SDS and 1 mM EDTA) supplemented with protease and phosphatase inhibitors (cOmplete EDTA-free Protease Inhibitor Cocktail, Roche; Halt™ Phosphatase Inhibitor Cocktail, Thermo Scientific). Subsequently, lysates were snap frozen in liquid nitrogen and stored in −20° C. Following thawing, lysates were centrifuged at 4° C., 19 000×g for 15 min for supernatants collection. The protein concentration in each sample was determined by BCA method (Pierce BCA Protein Assay Kit, Thermo Fischer Scientific). The absorbance was measured using CLARIOstar Multimode Plate Reader at 562 nm. SDS-PAGE samples were prepared by mixing the lysates with 5×SB and RIPA buffer. Denaturation of the samples was performed by incubation at 95° C. for 5 minutes.
The protein samples were resolved on 4-20% TGX Stain-Free™ protein gels (Bio-Rad) and transferred onto nitrocellulose membranes (Bio-Rad) using Trans-Blot® Turbo system (Bio-Rad). Membranes were blocked in 5% non-dried milk (NFM) in TBS-T (10 mM Tris, 150 mM NaCl, 0.1% Tween-20) for 1 h at room temperature (RT). Membranes were incubated with primary antibodies for NEK7 (O/N, 4° C.) and loading control—β-Actin (1 h, RT) diluted in 5% NFM in TBS-T, followed by incubation with the appropriate horseradish peroxidase (HRP) conjugated secondary antibody diluted in 5% NFM in TBS-T for 1 h in RT. Between each antibody incubation, the membranes were washed in TBS-T. Membranes were developed using SuperSignal West Pico PLUS chemiluminescent substrate (ThermoScientific). Membrane images were captured using Chemi Doc Imager. The analysis was performed in Image Lab software. Densitometric values for NEK7 protein were normalized to the loading control and calculated as a relative to the cells treated with DMSO control.
NEK7-HiBiT degradation results were further confirmed for selected compounds in human PBMC-derived macrophages.

NEK7-HiBiT protein, sequence (Q8TDX7 whole entry): as the sequence (Q8TDX7 whole entry) above
NEK7-HiBiT protein, sequence (Q96SW2 whole entry, further chain): as the sequence (Q96SW2 whole entry) above
NEK7-HiBiT protein, sequence (Q16531 whole entry partner): as the sequence (Q16531 whole entry partner) above

| SMILES | Levels of NEK7-HiBiT Protein (as a % of DMSO control) (NEK7-HiBiT protein) | remaining NEK7 protein amount at 10 µM (NEK7 protein) [%] | NEK7 protein degradation (Western blotting, in words) (NEK7 protein) |
| --- | --- | --- | --- |
| O=C1CCC(N2Cc3cc(-c4ccccn4)ccc3C2=O)C(=O)N1 (centres unmarked) [2(2), 3-(1-oxo-5-(pyridin-2-yl)isoindolin-2-yl)piperidine-2,6-dione] | B (Levels of NEK7-HiBiT Protein > 25% and ≤50%) | 40 to 75 |  |
| CC1c2cc(C3CCCCN3)ccc2C(=O)N1C1CCC(=O)NC1=O (centres unmarked) [Compound 25, 3-(3-methyl-1-oxo-5-(piperidin-2-yl)isoindolin-2-yl)piperidine-2,6-dione] | A (Levels of NEK7-HiBiT Protein ≤ 25%) | ≤ 10 | NEK7 protein degradation |
| O=C1CCC(N2Cc3cc(C4CCCCN4)ccc3C2=O)C(=O)N1 (centres unmarked) [Compound 2, 3-(1-oxo-5-(piperidin-2-yl)isoindolin-2-yl)piperidine-2,6-dione] | A (Levels of NEK7-HiBiT Protein ≤ 25%) | 10 to 40 | NEK7 protein degradation |
| O=C1CCC(N2Cc3cc(-c4ccc(-c5ccccc5)cn4)ccc3C2=O)C(=O)N1 (centres unmarked) [4(2), 3-(1-oxo-5-(5-phenylpyridin-2-yl)isoindolin-2-yl)piperidine-2,6-dione] | A (Levels of NEK7-HiBiT Protein ≤ 25%) | 40 to 75 |  |
| O=C1CCC(N2Cc3cc(C4CCCCN4)c(F)cc3C2=O)C(=O)N1 (centres unmarked) [Compound 23, 3-(6-fluoro-1-oxo-5-(piperidin-2-yl)isoindolin-2-yl)piperidine-2,6-dione] | B (Levels of NEK7-HiBiT Protein > 25% and ≤50%) | 40 to 75 |  |
| CC1c2cc(C3CCCCO3)ccc2C(=O)N1C1CCC(=O)NC1=O (centres unmarked) [Compound 64, 3-(3-methyl-1-oxo-5-(tetrahydro-2H-pyran-2-yl)isoindolin-2-yl)piperidine-2,6-dione] | A (Levels of NEK7-HiBiT Protein ≤ 25%) | ≤ 10 | NEK7 protein degradation |
| Cc1c(C2CCCCN2)ccc2c1CN(C1CCC(=O)NC1=O)C2=O (centres unmarked) [Compound 19, 3-(4-methyl-1-oxo-5-(piperidin-2-yl)isoindolin-2-yl)piperidine-2,6-dione] | B (Levels of NEK7-HiBiT Protein > 25% and ≤50%) | 40 to 75 |  |
